Laboratory results reported in the NIST ThermoML archive (doi:10.1021/je050034s).
± gives the expanded uncertainty stated by the source.

Assays:
[1] = Molar enthalpy of transition or fusion; conditions: Crystal
[2] = molar heat capacity at saturation pressure

c1ccc(Cc2ccccc2)cc1 [diphenylmethane]
Conditions | mass density [kg/m3] | vapor or sublimation pressure [kPa]
308.14 K, Liquid, Vibrating tube method | 996.7 ± 1 | –
323.14 K, Liquid, Vibrating tube method | 985.3 ± 1 | –
329.99 K, Liquid, Inclined piston gauge | – | 0.0261 ± 0.001
339.99 K, Liquid, Inclined piston gauge | – | 0.0523 ± 0.0011
348.13 K, Liquid, Vibrating tube method | 965.6 ± 1 | –
349.98 K, Liquid, Inclined piston gauge | – | 0.0995 ± 0.0011
359.97 K, Liquid, Inclined piston gauge | – | 0.1814 ± 0.0012
369.98 K, Liquid, Inclined piston gauge | – | 0.3181 ± 0.0014
373.12 K, Liquid, Vibrating tube method | 945.8 ± 0.9 | –
379.98 K, Liquid, Inclined piston gauge | – | 0.5378 ± 0.0016
389.97 K, Liquid, Inclined piston gauge | – | 0.8793 ± 0.0021
398.12 K, Liquid, Vibrating tube method | 926.1 ± 0.9 | –
399.97 K, Liquid, Inclined piston gauge | – | 1.395 ± 0.0027
408.21 K, Liquid, Twin ebulliometer | – | 2 ± 0.01
409.97 K, Liquid, Inclined piston gauge | – | 2.155 ± 0.0036
414.97 K, Liquid, Inclined piston gauge | – | 2.651 ± 0.0043
415.11 K, Liquid, Twin ebulliometer | – | 2.666 ± 0.01
419.97 K, Liquid, Inclined piston gauge | – | 3.243 ± 0.0049
423.12 K, Liquid, Vibrating tube method | 905.7 ± 0.9 | –
425.34 K, Liquid, Twin ebulliometer | – | 4 ± 0.011
432.99 K, Liquid, Twin ebulliometer | – | 5.333 ± 0.011
444.38 K, Liquid, Twin ebulliometer | – | 7.999 ± 0.012
448.11 K, Liquid, Vibrating tube method | 885.4 ± 0.9 | –
452.93 K, Liquid, Twin ebulliometer | – | 10.67 ± 0.013
459.84 K, Liquid, Twin ebulliometer | – | 13.33 ± 0.014
467.03 K, Liquid, Twin ebulliometer | – | 16.66 ± 0.015
473 K, Liquid, Twin ebulliometer | – | 19.93 ± 0.016
473.11 K, Liquid, Vibrating tube method | 864.3 ± 0.9 | –
480.86 K, Liquid, Twin ebulliometer | – | 25.02 ± 0.018
488.78 K, Liquid, Twin ebulliometer | – | 31.17 ± 0.021
496.76 K, Liquid, Twin ebulliometer | – | 38.56 ± 0.024
498.11 K, Liquid, Vibrating tube method | 842.6 ± 0.9 | –
504.79 K, Liquid, Twin ebulliometer | – | 47.37 ± 0.027
512.88 K, Liquid, Twin ebulliometer | – | 57.81 ± 0.031
521.02 K, Liquid, Twin ebulliometer | – | 70.11 ± 0.035
523.11 K, Liquid, Vibrating tube method | 819.2 ± 0.8 | –
529.22 K, Liquid, Twin ebulliometer | – | 84.53 ± 0.041
537.47 K, Liquid, Twin ebulliometer | – | 101.31 ± 0.046
545.78 K, Liquid, Twin ebulliometer | – | 120.78 ± 0.05
554.14 K, Liquid, Twin ebulliometer | – | 143.23 ± 0.06
562.56 K, Liquid, Twin ebulliometer | – | 169 ± 0.07
571.03 K, Liquid, Twin ebulliometer | – | 198.46 ± 0.08
579.55 K, Liquid, Twin ebulliometer | – | 231.99 ± 0.09
588.13 K, Liquid, Twin ebulliometer | – | 269.98 ± 0.09
743.8 K, Gas, DSC | 104.3 ± 10 | –
754.8 K, Gas, DSC | 148.4 ± 15 | –
760.6 K, Liquid, DSC | 417.7 ± 42 | –
767.1 K, Liquid, DSC | 417.5 ± 42 | –
769.8 K, Liquid, DSC | 397.2 ± 40 | –
770 K, Gas, DSC | 191.2 ± 19 | –
775.7 K, Gas, DSC | 220.3 ± 22 | –
776.5 K, Liquid, DSC | 333.5 ± 34 | –
777 K, Liquid, DSC | 304.2 ± 31 | –

Conditions | Molar enthalpy of transition or fusion [kcal/mol] | Triple point temperature [K]
Crystal | – | 298.37 ± 0.025
[1] | 4.543 ± 0.00478 | –

Conditions | Critical temperature [K]
Liquid, DTA | 778 ± 2

molar heat capacity [J/K/mol], [2]
Conditions | Crystal | Liquid
5 K, Vacuum adiabatic calorimetry | 0.38 ± 0.02 | –
5.364 K, Vacuum adiabatic calorimetry | 0.47 ± 0.02 | –
6.296 K, Vacuum adiabatic calorimetry | 0.76 ± 0.02 | –
7.218 K, Vacuum adiabatic calorimetry | 1.16 ± 0.02 | –
8.187 K, Vacuum adiabatic calorimetry | 1.71 ± 0.02 | –
9.195 K, Vacuum adiabatic calorimetry | 2.42 ± 0.03 | –
10 K, Vacuum adiabatic calorimetry | 3.12 ± 0.04 | –
10.21 K, Vacuum adiabatic calorimetry | 3.31 ± 0.04 | –
11.33 K, Vacuum adiabatic calorimetry | 4.39 ± 0.05 | –
12.6 K, Vacuum adiabatic calorimetry | 5.74 ± 0.06 | –
13.99 K, Vacuum adiabatic calorimetry | 7.45 ± 0.07 | –
15.53 K, Vacuum adiabatic calorimetry | 9.437 ± 0.07 | –
17.24 K, Vacuum adiabatic calorimetry | 11.84 ± 0.091 | –
19.13 K, Vacuum adiabatic calorimetry | 14.59 ± 0.1 | –
20 K, Vacuum adiabatic calorimetry | 15.87 ± 0.1 | –
21.21 K, Vacuum adiabatic calorimetry | 17.66 ± 0.11 | –
23.51 K, Vacuum adiabatic calorimetry | 21.15 ± 0.12 | –
26.07 K, Vacuum adiabatic calorimetry | 24.97 ± 0.12 | –
28.93 K, Vacuum adiabatic calorimetry | 29.09 ± 0.12 | –
30 K, Vacuum adiabatic calorimetry | 30.59 ± 0.11 | –
32.11 K, Vacuum adiabatic calorimetry | 33.47 ± 0.11 | –
35.66 K, Vacuum adiabatic calorimetry | 37.99 ± 0.12 | –
39.62 K, Vacuum adiabatic calorimetry | 42.58 ± 0.12 | –
40 K, Vacuum adiabatic calorimetry | 43 ± 0.12 | –
44.02 K, Vacuum adiabatic calorimetry | 47.26 ± 0.13 | –
48.94 K, Vacuum adiabatic calorimetry | 51.94 ± 0.14 | –
50 K, Vacuum adiabatic calorimetry | 52.92 ± 0.15 | –
50.87 K, Vacuum adiabatic calorimetry | 53.74 ± 0.15 | –
52.95 K, Vacuum adiabatic calorimetry | 55.44 ± 0.15 | –
54.43 K, Vacuum adiabatic calorimetry | 56.74 ± 0.16 | –
55.01 K, Vacuum adiabatic calorimetry | 57.11 ± 0.16 | –
57.89 K, Vacuum adiabatic calorimetry | 59.58 ± 0.16 | –
59.91 K, Vacuum adiabatic calorimetry | 61.04 ± 0.17 | –
60 K, Vacuum adiabatic calorimetry | 61.11 ± 0.17 | –
63.59 K, Vacuum adiabatic calorimetry | 63.66 ± 0.17 | –
65.43 K, Vacuum adiabatic calorimetry | 65.06 ± 0.17 | –
69.82 K, Vacuum adiabatic calorimetry | 68.05 ± 0.17 | –
70 K, Vacuum adiabatic calorimetry | 68.16 ± 0.17 | –
76.62 K, Vacuum adiabatic calorimetry | 72.36 ± 0.18 | –
78.19 K, Vacuum adiabatic calorimetry | 73.39 ± 0.19 | –
80 K, Vacuum adiabatic calorimetry | 74.47 ± 0.19 | –
81.13 K, Vacuum adiabatic calorimetry | 75.18 ± 0.19 | –
84.19 K, Vacuum adiabatic calorimetry | 76.96 ± 0.19 | –
85.52 K, Vacuum adiabatic calorimetry | 77.76 ± 0.2 | –
88.47 K, Vacuum adiabatic calorimetry | 79.51 ± 0.2 | –
90 K, Vacuum adiabatic calorimetry | 80.38 ± 0.28 | –
96.79 K, Vacuum adiabatic calorimetry | 84.28 ± 0.28 | –
100 K, Vacuum adiabatic calorimetry | 86.12 ± 0.28 | –
105.91 K, Vacuum adiabatic calorimetry | 89.5 ± 0.29 | –
115.55 K, Vacuum adiabatic calorimetry | 94.96 ± 0.3 | –
120 K, Vacuum adiabatic calorimetry | 97.5 ± 0.3 | –
125.31 K, Vacuum adiabatic calorimetry | 100.54 ± 0.3 | –
135.12 K, Vacuum adiabatic calorimetry | 106.25 ± 0.31 | –
140 K, Vacuum adiabatic calorimetry | 109.13 ± 0.31 | –
145.06 K, Vacuum adiabatic calorimetry | 112.15 ± 0.32 | –
155.05 K, Vacuum adiabatic calorimetry | 118.34 ± 0.32 | –
160 K, Vacuum adiabatic calorimetry | 121.47 ± 0.32 | –
165.03 K, Vacuum adiabatic calorimetry | 124.68 ± 0.32 | –
175.01 K, Vacuum adiabatic calorimetry | 131.04 ± 0.33 | –
180 K, Vacuum adiabatic calorimetry | 134.55 ± 0.33 | –
185 K, Vacuum adiabatic calorimetry | 138.14 ± 0.34 | –
195.05 K, Vacuum adiabatic calorimetry | 145.11 ± 0.35 | –
200 K, Vacuum adiabatic calorimetry | 148.68 ± 0.35 | –
205.14 K, Vacuum adiabatic calorimetry | 152.48 ± 0.35 | –
215.25 K, Vacuum adiabatic calorimetry | 160.17 ± 0.36 | –
220 K, Vacuum adiabatic calorimetry | 163.86 ± 0.37 | –
225.34 K, Vacuum adiabatic calorimetry | 168.15 ± 0.37 | –
235.38 K, Vacuum adiabatic calorimetry | 176.42 ± 0.37 | –
240 K, Vacuum adiabatic calorimetry | 180.3 ± 0.38 | –
245.37 K, Vacuum adiabatic calorimetry | 185.01 ± 0.38 | –
246.51 K, Vacuum adiabatic calorimetry | 185.99 ± 0.38 | –
255.32 K, Vacuum adiabatic calorimetry | 193.89 ± 0.39 | –
257.33 K, Vacuum adiabatic calorimetry | 195.76 ± 0.4 | –
260 K, Vacuum adiabatic calorimetry | 198.12 ± 0.4 | –
268.6 K, Vacuum adiabatic calorimetry | 206.43 ± 0.41 | –
279.29 K, Vacuum adiabatic calorimetry | 217.16 ± 0.42 | –
280 K, Vacuum adiabatic calorimetry | 217.44 ± 0.42 | –
289.28 K, Vacuum adiabatic calorimetry | 229.55 ± 0.43 | –
289.37 K, Vacuum adiabatic calorimetry | 229.9 ± 0.43 | –
298.15 K, Vacuum adiabatic calorimetry | 236.26 ± 0.44 | 267.36 ± 0.47
298.37 K, Vacuum adiabatic calorimetry | 236.5 ± 0.44 | 267.48 ± 0.47
300 K, Vacuum adiabatic calorimetry | – | 268.32 ± 0.47
303.38 K, Vacuum adiabatic calorimetry | – | 270.07 ± 0.47
305.34 K, Vacuum adiabatic calorimetry | – | 270.99 ± 0.47
305.59 K, Vacuum adiabatic calorimetry | – | 271.14 ± 0.47
313.82 K, Vacuum adiabatic calorimetry | – | 275.26 ± 0.47
320 K, Vacuum adiabatic calorimetry | – | 278.43 ± 0.48
325.59 K, Vacuum adiabatic calorimetry | – | 281.23 ± 0.48
339.57 K, Vacuum adiabatic calorimetry | – | 288.4 ± 0.49
340 K, Vacuum adiabatic calorimetry | – | 288.62 ± 0.49
356.66 K, Vacuum adiabatic calorimetry | – | 297.31 ± 0.5
360 K, Vacuum adiabatic calorimetry | – | 299.1 ± 0.5
373.63 K, Vacuum adiabatic calorimetry | – | 306.34 ± 0.51
380 K, Vacuum adiabatic calorimetry | – | 309.56 ± 0.51
390.49 K, Vacuum adiabatic calorimetry | – | 314.87 ± 0.52
400 K, Vacuum adiabatic calorimetry | – | 319.92 ± 0.52
407.29 K, Vacuum adiabatic calorimetry | – | 323.8 ± 0.52
420 K, Vacuum adiabatic calorimetry | – | 330.39 ± 0.53
424.08 K, Vacuum adiabatic calorimetry | – | 332.47 ± 0.53
438.41 K, Vacuum adiabatic calorimetry | – | 339.81 ± 0.54
440 K, Vacuum adiabatic calorimetry | – | 340.5 ± 0.54
460 K, Vacuum adiabatic calorimetry | – | 349.5 ± 0.55
480 K, Small sample (50 mg) DSC | – | 358.67 ± 7.2
500 K, Small sample (50 mg) DSC | – | 367.6 ± 7.3
520 K, Small sample (50 mg) DSC | – | 376.3 ± 7.6
540 K, Small sample (50 mg) DSC | – | 384.6 ± 7.7
560 K, Small sample (50 mg) DSC | – | 392.7 ± 7.8
580 K, Small sample (50 mg) DSC | – | 400.5 ± 8
600 K, Small sample (50 mg) DSC | – | 407.9 ± 8.1
620 K, Small sample (50 mg) DSC | – | 415.1 ± 8.3
640 K, Small sample (50 mg) DSC | – | 422.3 ± 8.5
660 K, Small sample (50 mg) DSC | – | 429.6 ± 8.6
680 K, Small sample (50 mg) DSC | – | 437.4 ± 8.7
700 K, Small sample (50 mg) DSC | – | 446.9 ± 9
